Tested on: PC12
Test: Protective effect against ischemic cell death induced by hypoxia and low glucose (cell viability, Cell Titer-Glo)
Format: cell-based, rat
Details: 30 μM, 2 h, then low glucose, zero percent O2, 8 h, FIG. 1, Tukey-Kramer test
Source text: The progress of visual impairment in glaucoma is associated with retinal ganglion cell (RGC) death due to blood flow failure occurring near the optic nerve (Folia Pharmacol. Jpn. 128, 255-258 (2006)). With the use of PC12, which is a typical neural cell line established from rat adrenal […] pheochromocytoma and used also as a model cell for the functional evaluation of RGC (J Neurosci Res. 2000 May 15; 60(4): 495-503.), the cytoprotective effect of GGA against ischemic cell death induced by hypoxia and low glucose was evaluated.
Test samples were prepared as follows. The test substances were four types of GGAs that contain the all-trans form and the 5Z-mono-cis form at a weight ratio of 10:0, 8:2, 6:4, and 0:10, respectively. […]
After 8 hours of incubation, 100 μL of an equivalent mixture of a cell viability detection reagent Cell Titer-Glo (Promega) and PBS was added to each well and the luminescence produced by the reaction with ATP in living cells was measured with a luminometer (GloMax; Promega). The cell viability was calculated from the measured luminescence by the following formula and the cytoprotective effect of GGA against […] was examined.
Cell viability (%)=100×[(luminescence of base- or GGA-treated group)/(luminescence of non-treated group)]

## CC(=O)CC/C=C(\C)CC/C=C(\C)CC/C=C(\C)CCC=C(C)C [all-trans form, (5E,9E,13E)-6,10,14,18-tetramethyl-5,9,13,17-nonadecatetrae n-2-one]
  Cytoprotective effect compared with GGA of weight ratio 6:4: significantly higher cytoprotective effects
